Experimental data published in patent US11685761B2, “Cyclic di-nucleotide compounds as sting agonists” (Merck Sharp & Dohme Corp., priority 2017, dated 2023).

What was measured:
[1] = biological target: T1, full-length HAQ STING (Homo sapiens, UniProt Q86WV6, G230A/H232R/R293Q/R71H); test: 3H-cGAMP filtration binding assay (HAQ STING); conditions: competition with tritiated cGAMP ligand; T. ni cell membranes overexpressing full-length HAQ STING
T1 construct: made in house; host or cells: Trichoplusia ni (Hi-Five) insect cells, baculovirus generated in Sf21; crude membranes
T1 sequence (Q86WV6 with tags, fused parts or gaps R71H/G230A/H232R/R293Q): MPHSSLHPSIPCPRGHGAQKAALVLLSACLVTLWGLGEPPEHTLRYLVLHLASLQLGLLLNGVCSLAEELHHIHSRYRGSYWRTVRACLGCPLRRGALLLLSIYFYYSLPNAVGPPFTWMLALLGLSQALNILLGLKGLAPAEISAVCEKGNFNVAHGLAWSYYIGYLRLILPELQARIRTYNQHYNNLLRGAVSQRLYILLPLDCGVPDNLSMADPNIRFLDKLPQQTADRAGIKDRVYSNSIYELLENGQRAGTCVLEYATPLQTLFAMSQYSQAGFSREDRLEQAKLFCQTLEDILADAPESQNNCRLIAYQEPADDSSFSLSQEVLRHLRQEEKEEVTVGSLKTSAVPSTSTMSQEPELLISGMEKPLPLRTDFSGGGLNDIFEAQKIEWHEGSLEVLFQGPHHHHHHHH
Description: The ability of compounds to bind STING is quantified by the ability to compete with tritiated cGAMP ligand for human STING receptor membrane using a radioactive filter-binding assay. The binding assay employs STING receptor obtained from Hi-Five cell membranes overexpressing full-length HAQ STING prepared in-house and tritiated cGAMP ligand also purified in-house.
(§1) The ability of compounds to bind STING is quantified by their ability to compete with tritiated cGAMP ligand for human STING receptor membrane using a radioactive filter-binding assay. The binding assay employs STING receptor obtained from Trichoplusia ni cell membranes (T. ni; Expression Systems, cat #94-002F, www.expressionsystems.com) overexpressing full-length HAQ STING and tritiated cGAMP ligand.
The basic HAQ STING filtration assay protocol is as follows:
The compounds were serially titrated by the Hamilton STARPlus CORE in a 96-well plate (Greiner, #651201) using a 1:3 ten-point dose response format. […] 148 uL of prepared membrane was then manually added to each well of a 96-well deep-well polypropylene plate (Fisher Scientific, #12-566-121). Following membrane addition, 2 uL of either titrated test compound, DMSO control (Sigma #276855), or cold cGAMP control was added to the appropriate wells using a BIOMEK FX. Compound and membrane then preincubated for 60 min at RT to allow compound binding to equilibrate. Following equilibration, 8 nM of [^3H] c-GAMP ligand was prepared by diluting into assay buffer, and 50 uL of this working stock was then manually added to each well of the assay plate. Plates were then incubated at RT for 60 min, and the contents of each assay plate were then filtered through a 96-well GF/B filter plate (PerkinElmer, #6005250) using a TOMTEC MACH III Cell Harvester equipped with 20 mM HEPES buffer (Fisher Scientific, #BP299500). The filter plates were then dried at 55° C. for 30 min using a pressurized oven before 30 uL of ULTIMA GOLD F scintillate was added to each well. Tritium levels for each reaction well were then measured using a PerkinElmer TopCount plate reader.
(§2) After normalization to controls, the percent activity for each compound concentration was calculated by measuring the amount of remaining radioactivity. The plot of percent activity versus the log of compound concentration was fit with a 4-parameter dose response equation to calculate EC50 values.

[2] = biological target: T2, full-length WT STING (Homo sapiens, UniProt Q86WV6, H232R); test: 3H-cGAMP filtration binding assay (WT STING); conditions: competition with tritiated cGAMP ligand; T. ni cell membranes overexpressing full-length WT STING
T2 construct: made in house; host or cells: Trichoplusia ni insect cells, baculovirus generated in Sf21; crude membranes
T2 sequence (Q86WV6 with tags, fused parts or gaps H232R): as the sequence (Q86WV6 with tags, fused parts or gaps R71H/G230A/H232R/R293Q) above, with H71R, A230G, Q293R counted along it
Procedure: as §1, with “WT” for “HAQ”
The basic WT STING filtration assay protocol is as follows:
16 nM of [^3H] c-GAMP ligand was prepared by diluting into assay buffer, and 50 uL of this working stock was manually added to each well of the assay plate. After ligand addition, 2 uL of either titrated test compound, DMSO control (Sigma #276855), or cold cGAMP control was added to the appropriate wells using a BIOMEK FX. The serially titrated compound was prepared on a Hamilton STARPlus CORE in a 96-well plate (Greiner, #651201) using a 1:3 ten-point dose response format. Following compound addition, a 2.2 ug/ml working concentration of STING membrane (SEQ. ID. No. 3) was prepared by diluting concentrated membrane into assay buffer (1×PBS; Invitrogen #SH30028.02) and douncing 7× using a manual tissue homogenizer (Wheaton, #357546). 148 uL of this prepared membrane was then manually added to each well of a 96-well deep-well polypropylene plate (Fisher Scientific, #12-566-121). Compound, ligand, and membrane then incubated for 60 min at RT before the contents of each assay plate were filtered through a 96-well GF/B filter plate (PerkinElmer, #6005250) using a TOMTEC MACH III Cell Harvester equipped with 20 mM HEPES buffer (Fisher Scientific, #BP299500). The filter plates were then dried at 55° C. for 30 min using a pressurized VWR oven before 30 uL of ULTIMA GOLD F scintillate was added to each well. Tritium levels for each reaction well were then measured using a PerkinElmer TopCount plate reader.
as §2

[3] = system: IFN-β secretion from THP1 cells; test: IFN-β secretion in THP1 cell culture (5 h); type: cell-based, human; conditions: THP1 cells, 5 h incubation, compound at 30 μM, 30 uM cGAMP = 100%; for activation at 30 µM: Homo sapiens, THP-1, 5 h, read-out: % Effect at 30 μM relative to 2′3′-cGAMP
Procedure: The ability of compounds to stimulate the secretion of interferon-beta from THP1 cells was measured using a human IFN-β AlphaLISA kit (Perkin Elmer, Cat. No. AL265F). The basic protocol is as follows:
The cell viability and count was ascertained using a Beckman Coulter V-Cell XR cell counter. The cell suspension was centrifuged at 200×g for 5 min at RT. Cells were resuspended to a density of 0.8×10^6/mL in 37° C. assay medium. Subsequent liquid transfers were performed using either a Matrix electronic multichannel pipette or an Agilent Bravo Automated Liquid Handling Platform.
The assay was started by dispensing 40 μL of the previously prepared cell suspension into the wells of the plate containing compounds. After 5 h incubation at 37° C., 5% CO2 in a humidified atmosphere, the plate of cells and compounds was centrifuged at 200×g for 5 min at RT. […] To these supernatant-containing wells was added 10 μL of 5× Anti-Analyte Acceptor beads (50 μg/mL of AlphaLISA HiBlock Buffer) and incubated for 30 min at RT while shaking on an orbital plate shaker. To each well was added 10 μL of 5× Biotinylated Antibody Anti-analyte (5 nM in AlphaLISA HiBlock Buffer) and incubated on an orbital plate shaker for 60 min at RT or overnight at 4° C. To each well was added 25 μL of 2× SA-Donor beads (80 μg/mL in AlphaLISA HiBlock Buffer) and incubated for 30-45 min at RT in the dark while shaking on an orbital plate shaker. The plate was then read on a Perkin Elmer Envision (λex680 nm, λem=570 nm). The percent effect of the AlphaLISA signal at each compound concentration was calculated based on 30 uM cGAMP positive controls and 0.3% DMSO negative controls. The plot of percent effect versus the log of compound concentration was fit with a 4-parameter concentration response equation to calculate EC50 values.
Compounds of the disclosure were evaluated for IFN-β secretion in THP1 cell culture as described above.

Structure (SMILES)	EC50 [1]	EC50 [2]	activation at 30 µM [3]	% Effect at 30 μM relative to 2′3′-cGAMP [3]
Nc1ncnc2c1ncn2[C@@H]1O[C@@H]2CO[P@@](=O)(S)O[C@@H]3[C@H](O)[C@@H](CO[P@@](=O)(S)O[C@H]2[C@H]1O)O[C@H]3n1ccc(=O)n2ccnc12 (single isomer, unassigned) [Example 1]	77 nM	1640 nM	143%	
Nc1ncnc2c1ncn2[C@@H]1O[C@@H]2COP(=O)(S)O[C@@H]3[C@H](O)[C@@H](COP(=O)(S)O[C@H]2[C@@H]1F)O[C@H]3n1cnc2c(=O)n3cc[nH]c3nc21 (single isomer, unassigned) [Example 15]		43 nM		318%
Nc1ncnc2c1ncn2[C@@H]1O[C@@H]2COP(=O)(S)O[C@@H]3[C@H](O)[C@@H](COP(=O)(S)O[C@H]2[C@@H]1F)O[C@H]3n1cnc2c(=O)n3cc[nH]c3nc21 (single isomer, unassigned) [Example 16]		90 nM		281%
Nc1ncnc2c1ncn2[C@@H]1O[C@@H]2CO[P@@](=O)(S)O[C@@H]3C[C@@H](CO[P@](=O)(S)O[C@H]2[C@@H]1F)O[C@H]3n1ccc(=O)n2ccnc12 (single isomer, unassigned) [Example 20]	15 nM	83 nM	169%	
Nc1nc2c(ncn2[C@@H]2O[C@@H]3CO[P@@](=O)(S)O[C@H]4C[C@H](n5ccc6c(=O)[nH]cnc65)O[C@@H]4CO[P@@](=O)(S)O[C@@H]2C3)c(=O)[nH]1 (single isomer, unassigned) [Example 38]	1 nM	393 nM	109%	
Nc1nc2c(nnn2[C@@H]2S[C@@H]3COP(=O)(S)O[C@H]4[C@H](F)[C@H](n5ccc6c(=O)[nH]cnc65)O[C@@H]4COP(=O)(S)O[C@@H]2[C@@H]3F)c(=O)[nH]1 (single isomer, unassigned) [Example 49]	1 nM	756 nM		163%
Nc1ncnc2c1ncn2[C@@H]1O[C@@H]2COP(=O)(S)O[C@@H]3[C@H](O)[C@@H](COP(=O)(S)O[C@H]2[C@@H]1F)O[C@H]3n1cnc2c(=O)n3c(nc21)NC(=O)C3 (stereo partly drawn) [Example 14, 3-[(5R,7R,8R,12aR,14R,15S,15aR,16R)-14-(6-amino-9H-purin-9-yl)-15-fluoro-16-hydroxy-2,10-dioxido-2,10-disulfanyloctahydro-12H-5,8-methanofuro[3,2-l][l,3,6,9,11,2,10]pentaoxadiphosphacyclotetradecin-7-yl]-3H-imidazo[1,2-a]purine-6,9(5H,7H)-dione]		433 nM	12%	

More lines, in order of falling EC50 [2], values ahead:

EC50 [1]	EC50 [2]	Structure (SMILES)	activation at 30 µM [3]	% Effect at 30 μM relative to 2′3′-cGAMP [3]
4 nM	9130 nM	Nc1nc2c(nnn2[C@@H]2S[C@@H]3COP(=O)(S)O[C@H]4[C@H](F)[C@H](n5ccc6c(=O)[nH]cnc65)O[C@@H]4COP(=O)(S)O[C@@H]2[C@@H]3F)c(=O)[nH]1 (single isomer, unassigned) [Example 50]		109%
5 nM	2830 nM	Nc1nc2c(ncn2[C@@H]2O[C@@H]3COP(=O)(S)O[C@H]4[C@H](F)[C@H](n5ccc6c(=O)[nH]cnc65)O[C@@H]4COP(=O)(S)O[C@@H]2[C@@H]3F)c(=O)[nH]1 (single isomer, unassigned) [Example 40]		150%
16 nM	2400 nM	Nc1ncnc2c1ncn2[C@@H]1O[C@@H]2COP(=O)(S)O[C@H]3[C@H](F)[C@H](n4ccc5c(=O)[nH]cnc54)O[C@@H]3COP(=O)(S)O[C@@H]1C2 (single isomer, unassigned) [Example 46]		166%
167 nM	253 nM	Nc1nc2c(ncn2[C@@H]2O[C@@H]3COP(=O)(S)O[C@H]4C[C@H](n5cc(F)c6c(=O)[nH]cnc65)O[C@@H]4COP(=O)(S)O[C@@H]2[C@@H]3F)c(=O)[nH]1 (single isomer, unassigned) [Example 53]	85%	
37 nM	148 nM	Nc1nc2c(nnn2[C@@H]2O[C@@H]3COP(=O)(S)O[C@H]4C[C@H](n5ccc6c(=O)[nH]cnc65)O[C@@H]4COP(=O)(S)O[C@@H]2C3)c(=O)[nH]1 (single isomer, unassigned) [Example 43]		120%
1 nM	46 nM	Nc1nc2c(nnn2[C@@H]2O[C@@H]3COP(=O)(S)O[C@H]4C[C@H](n5ccc6c(=O)[nH]cnc65)O[C@@H]4COP(=O)(S)O[C@@H]2C3)c(=O)[nH]1 (single isomer, unassigned) [Example 42]		72%
2 nM	32 nM	Nc1ncnc2c1ncn2[C@@H]1O[C@@H]2CO[P@@](=O)(S)O[C@@H]3[C@H](O)[C@@H](CO[P@](=O)(S)O[C@H]2[C@H]1O)O[C@H]3n1ccc(=O)n2ccnc12 [Example 2, 8-[(2S,5R,7R,8R,10R,12aR,14R,15R,15aS,16R)-14-(6-amino-9H-purin-9-yl)-15,16-dihydroxy-2,10-dioxido-2,10-disulfanyloctahydro-12H-5,8-methanofuro[3,2-l][1,3,6,9,11,2,10]pentaoxadiphospha-cyclotetradecin-7-yl]imidazo[1,2-a]pyrimidin-5(8H)-one]	44%	
